Data taken from US12391697B2, “Condensed bi-heterocycles as inhibiting agents for Bruton's tyrosine kinase” (BIOGEN MA INC., priority 2019, dated 2025).
Where a name gives a salt, the structure may show the parent alone.

Molecular target: BTK (Homo sapiens (Human), UniProt Q06187)
Assay: In Vitro BTK Kinase Assay: Btk-PolyGAT-LS Assay
Format: biochemical
Details: active BTK enzyme 0.25 nM, ATP 10 μM, polyGAT 100 nM, 30 minutes
Procedure: In Vitro BTK Kinase Assay: Btk-PolyGAT-LS Assay
The purpose of the BTK in vitro assay is to determine compound potency against BTK through the measurement of IC50. […] The BTK kinase reaction was done in a black 96 well plate (costar 3694). For a typical assay, a […] aliquot of a ATP/peptide master mix (final concentration; ATP 10 μM, polyGAT 100 nM) in kinase buffer (10 mM Tris-HCl pH 7.5, 10 mM MgCl2, 200 μM […], 5 mM DTT, 0.01% Triton X-100, and 0.2 mg/ml casein) is added to each well. Next, […] of a 4-fold, 40× compound titration in 100% DMSO solvent is added, followed by adding 15 uL of BTK enzyme mix in 1× kinase buffer (with a final concentration of 0.25 nM). The assay is incubated for 30 minutes before being stopped with […] of a 50 mM EDTA solution. Aliquots (5 uL) of the kinase reaction are transferred to a low volume white 384 well plate (Corning 3674), and […] of a 2× detection buffer (Invitrogen PV3574, with 4 nM Tb-PY20 antibody, Invitrogen PV3552) is added. The plate is covered and incubated for 45 minutes at room temperature. Time resolved fluorescence (TRF) on Molecular Devices M5 (332 nm excitation; 488 nm emission; 518 nm fluorescein emission) is measured.

Sequence of BTK (Q06187 whole entry): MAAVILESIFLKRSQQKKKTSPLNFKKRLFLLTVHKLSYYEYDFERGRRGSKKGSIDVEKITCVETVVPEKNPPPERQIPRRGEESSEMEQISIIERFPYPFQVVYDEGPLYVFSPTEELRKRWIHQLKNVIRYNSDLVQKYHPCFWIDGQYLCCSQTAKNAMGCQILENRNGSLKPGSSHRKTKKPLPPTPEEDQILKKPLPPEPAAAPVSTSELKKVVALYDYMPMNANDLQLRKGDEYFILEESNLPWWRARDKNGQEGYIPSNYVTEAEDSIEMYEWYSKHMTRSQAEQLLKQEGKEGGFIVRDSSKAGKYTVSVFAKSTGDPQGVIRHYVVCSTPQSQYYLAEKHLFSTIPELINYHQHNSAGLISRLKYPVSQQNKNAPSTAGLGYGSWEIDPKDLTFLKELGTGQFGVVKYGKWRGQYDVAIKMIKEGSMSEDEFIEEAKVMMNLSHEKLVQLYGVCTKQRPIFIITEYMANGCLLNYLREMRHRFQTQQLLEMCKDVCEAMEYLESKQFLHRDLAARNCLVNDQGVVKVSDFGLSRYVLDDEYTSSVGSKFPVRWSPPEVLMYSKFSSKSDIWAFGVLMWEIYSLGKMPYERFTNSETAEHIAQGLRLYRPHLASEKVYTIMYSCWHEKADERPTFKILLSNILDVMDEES

`Cc1cc(-c2ncnn3cc(-c4cnn(C)c4C)cc23)ccc1CNC(=O)c1coc(C(C)(C)C)n1` [Example 130] and `Cc1cc(-c2ncnn3cc(-c4cnn(C)c4C)cc23)ccc1CNC(=O)c1nnn(C(C)(C)C)n1` [Example 129] cannot be ordered by IC50: no more than 1 nM for the first, no more than 1 nM for the second.

`CC(C)(C)c1nnc(C(=O)NCc2ccc(-c3ncnn4cc(N5CCOCC5)cc34)c(F)c2C(F)F)o1` [Example 199] and `CC(C)(C)c1nnc(C(=O)NCc2ccc(-c3ncnn4cc(N5CCOCC5)cc34)c(F)c2Cl)o1` [Example 156] cannot be ordered by IC50: 1 to 10 nM for the first, no more than 1 nM for the second.

`Cc1cc(-c2ncnn3cc(N4CCOC(C(C)C)C4)cc23)ccc1CNC(=O)c1nc(C(C)(C)C)no1` (stereo not shown) [Example 100] and `CC(C)(C)c1noc(C(=O)NCc2ccc(-c3ncnn4cc(N5CCOCC5)cc34)cc2Cl)n1` [Example 159] cannot be ordered by IC50: 1 to 10 nM for the first, no more than 1 nM for the second.

`COCCN(C)c1cc2c(-c3ccc(CNC(=O)c4noc(C(C)(C)C)n4)c(C)c3)ncnn2c1` [Example 174] and `COCc1cc2c(-c3ccc(CNC(=O)c4noc(C(C)(C)C)n4)c(C)c3)ncnn2c1` [Example 77, 5-(tert-butyl)-N-(4-(6-(methoxymethyl)pyrrolo[2,1-f][1,2,4]triazin-4-yl)-2-methylbenzyl)-1,2,4-oxadiazole-3-carboxamide hydrochloride] cannot be ordered by IC50: no more than 1 nM for the first, 1 to 10 nM for the second.

`Cc1cc(-c2ncnn3cc(-c4ccc(C#N)cc4)cc23)ccc1CNC(=O)c1noc(C(C)(C)C)n1` [Example 225] and `Cc1cc(-c2ncnn3cc(-c4cn[nH]c4)cc23)ccc1CNC(=O)c1noc(C(C)(C)C)n1` [Example 85] cannot be ordered by IC50: no more than 1 nM for the first, no more than 1 nM for the second.

`Cc1c(CNC(=O)c2noc(C(C)(C)C)n2)ccc(-c2ncnn3cc(N4CCOCC4)cc23)c1F` [Example 86] and `CC(C)(C)c1nc(C(=O)NCc2ccc(-c3ncnn4cc(N5CCOCC5)cc34)c(F)c2C(F)F)no1` [Example 221] cannot be ordered by IC50: no more than 1 nM for the first, no more than 1 nM for the second.

`CC(C)(C)n1cc(C(=O)NCc2ccc(-c3ncnn4cc(-c5cnn(CC(F)F)c5)cc34)cc2C(F)F)cn1` [Example 209] and `Cn1cc(-c2cc3c(-c4ccc(CNC(=O)c5coc(C(C)(C)C)n5)c(C(F)F)c4)ncnn3c2)cn1` [Example 211] cannot be ordered by IC50: no more than 1 nM for the first, no more than 1 nM for the second.

`Cc1cc(-c2ncnn3cc(OC4CCOCC4)cc23)ccc1CNC(=O)c1noc(C(C)(C)C)n1` [Example 79, 5-(tert-butyl)-N-(2-methyl-4-(6-((tetrahydro-2H-pyran-4-yl)oxy)pyrrolo[2,1-f][1,2,4]triazin-4-yl)benzyl)-1,2,4-oxadiazole-3-carboxamide] and `Cc1cc(-c2ncnn3cc(C4CCN(C)C4)cc23)ccc1CNC(=O)c1noc(C(C)(C)C)n1` (stereo not shown) [Example 149] fall in the same range of IC50: 1 to 10 nM for the first, 1 to 10 nM for the second.

`Cc1cc(-c2ncnn3cc(-c4cnn(C)c4)cc23)ccc1CNC(=O)c1nnc(C(C)(C)C(F)F)o1` [Example 3, 5-(1,1-difluoro-2-methylpropan-2-yl)-N-(2-methyl-4-(6-(1-methyl-1H-pyrazol-4-yl)pyrrolo[2,1-f][1,2,4]triazin-4-yl)benzyl)-1,3,4-oxadiazole-2-carboxamide] and `Cc1cc(-c2ncnn3cc(-c4cnn(C)c4)cc23)ccc1CNC(=O)c1nnc(C(C)(C)C)o1` [Example 165] cannot be ordered by IC50: no more than 1 nM for the first, no more than 1 nM for the second.

`CC(C)(C)c1nc(C(=O)NCc2ccc(-c3ncnn4cc(N5CCOCC5)cc34)cc2CC(F)F)no1` [Example 232] and `CC(C)(C)c1noc(C(=O)NCc2ccc(-c3ncnn4cc(N5CCOCC5)cc34)cc2C2CC2)n1` [Example 206] cannot be ordered by IC50: no more than 1 nM for the first, no more than 1 nM for the second.

`Cc1c(CNC(=O)c2noc(C(C)(C)C)n2)ccc(-c2ncnn3cc(-c4cnn(C)c4)cc23)c1F` [Example 112] and `Cc1c(CNC(=O)c2noc(C3(C)CC3)n2)ccc(-c2ncnn3cc(-c4cnn(C)c4)cc23)c1F` [Example 42, N-(3-fluoro-2-methyl-4-(6-(1-methyl-1H-pyrazol-4-yl)pyrrolo[2,1-f][1,2,4]triazin-4-yl)benzyl)-5-(1-methylcyclopropyl)-1,2,4-oxadiazole-3-carboxamide hydrochloride] cannot be ordered by IC50: no more than 1 nM for the first, no more than 1 nM for the second.

`Cc1cc(-c2ncnn3cc(-c4cnn(C(F)F)c4)cc23)ccc1CNC(=O)c1noc(C(C)(C)C)n1` [Example 107] and `Cc1cc(-c2cc3c(-c4ccc(CNC(=O)c5noc(C(C)(C)C)n5)c(C)c4)ncnn3c2)cnn1` [Example 170] cannot be ordered by IC50: no more than 1 nM for the first, no more than 1 nM for the second.

`Cc1cc(-c2ncnn3cc(N4CCN(C)C(C)C4)cc23)ccc1CNC(=O)c1nnn(C(C)(C)C)n1` (stereo not shown) [Example 98] and `Cc1cc(-c2ncnn3cc(-c4cnn(C)c4)cc23)ccc1CNC(=O)c1nnn(C(C)(C)C)n1` [Example 113] cannot be ordered by IC50: no more than 1 nM for the first, no more than 1 nM for the second.

First: Cc1cc(-c2ncnn3cc(N4C[C@@H]5C[C@H]4CN5C)cc23)ccc1CNC(=O)c1noc(C(C)(C)C)n1 [Example 93]
Second: Cc1cc(-c2ncnn3cc(N4CC5CC(C4)N5C)cc23)ccc1CNC(=O)c1noc(C(C)(C)C)n1 [Example 148]
The IC50 of the first is higher: greater than 10 nM for the first, 1 to 10 nM for the second.

`CC(C)(C)n1cc(C(=O)NCc2ccc(-c3ncnn4cc(N5CCOCC5)cc34)c(F)c2Cl)cn1` [Example 155] and `Cc1cc(-c2ncnn3cc(N4CCOC(C)(C)C4)cc23)ccc1CNC(=O)c1noc(C(C)(C)C)n1` [Example 78, 5-(tert-butyl)-N-(4-(6-(2,2-dimethylmorpholino)pyrrolo[2,1-f][1,2,4]triazin-4-yl)-2-methylbenzyl)-1,2,4-oxadiazole-3-carboxamide hydrochloride] cannot be ordered by IC50: no more than 1 nM for the first, no more than 1 nM for the second.

`Cc1cc(-c2ccnn3ccnc23)ccc1CNC(=O)c1noc(C(C)(C)C)n1` [Example 21, 5-(tert-butyl)-N-(4-(imidazo[1,2-b]pyridazin-8-yl)-2-methylbenzyl)-1,2,4-oxadiazole-3-carboxamide trifluoroacetate] and `Cc1c(CNC(=O)c2noc(C(C)(C)C)n2)ccc(-c2ncnn3cccc23)c1F` [Example 218] cannot be ordered by IC50: 1 to 10 nM for the first, no more than 1 nM for the second.

`Cc1cc(-c2ncnn3cc(-c4cn(C)nn4)cc23)ccc1CNC(=O)c1noc(C(C)(C)C)n1` [Example 106] and `Cc1cc(-c2ncnn3cc(N4CCN(C)C[C@H]4C)cc23)ccc1CNC(=O)c1noc(C(C)(C)C)n1` [Example 70, (R)-5-(tert-butyl)-N-(4-(6-(2,4-dimethylpiperazin-1-yl)pyrrolo[2,1-f][1,2,4]triazin-4-yl)-2-methylbenzyl)-1,2,4-oxadiazole-3-carboxamide trifluoroacetate] cannot be ordered by IC50: no more than 1 nM for the first, 1 to 10 nM for the second.

`Cc1c(CNC(=O)c2noc(C(C)(C)C)n2)ccc(-c2ccnc3cc(N4CCOCC4)nn23)c1F` [Example 84] and `Cc1cc(-c2ccnc3cc(N4CCOCC4)nn23)ccc1CNC(=O)c1noc(C(C)(C)C)n1` [Example 22, 5-(tert-butyl)-N-(2-methyl-4-(2-morpholinopyrazolo[1,5-a]pyrimidin-7-yl)benzyl)-1,2,4-oxadiazole-3-carboxamide] fall in the same range of IC50: 1 to 10 nM for the first, 1 to 10 nM for the second.

`Cc1cc(-c2ncnn3cccc23)ccc1CNC(=O)c1nnn(C(C)(C)C)n1` [Example 214] and `Cc1c(CNC(=O)c2noc(C(C)(C)C)n2)cc(F)c(-c2ncnn3cccc23)c1F` [Example 63, 5-(tert-butyl)-N-(3,5-difluoro-2-methyl-4-(pyrrolo[2,1-f][1,2,4]triazin-4-yl)benzyl)-1,2,4-oxadiazole-3-carboxamide hydrochloride] fall in the same range of IC50: 1 to 10 nM for the first, 1 to 10 nM for the second.

`Cc1cc(-c2ncnn3cc(C4CCOCC4)cc23)ccc1CNC(=O)c1nc(C(C)(C)C)no1` [Example 72, 3-(tert-butyl)-N-(2-methyl-4-(6-(tetrahydro-2H-pyran-4-yl)pyrrolo[2,1-f][1,2,4]triazin-4-yl)benzyl)-1,2,4-oxadiazole-5-carboxamide trifluoroacetate] and `COc1cc(-c2ncnn3cc(-c4cnn(C)c4)cc23)ccc1CNC(=O)c1nc(C(C)(C)C)no1` [Example 189] cannot be ordered by IC50: 1 to 10 nM for the first, no more than 1 nM for the second.

Going from `Cc1cc(-c2ncnn3cc(C(=O)N4CCN(C)CC4)cc23)ccc1CNC(=O)c1noc(C(C)(C)C)n1` [Example 216] to `Cc1cc(-c2ncnn3cc(N4CC(CO)(CO)C4)cc23)ccc1CNC(=O)c1noc(C(C)(C)C)n1` [Example 73, N-(4-(6-(3,3-bis(hydroxymethyl)azetidin-1-yl)pyrrolo[2,1-f][1,2,4]triazin-4-yl)-2-methylbenzyl)-5-(tert-butyl)-1,2,4-oxadiazole-3-carboxamide], the IC50 falls from greater than 10 nM to no more than 1 nM. The second is the more potent here.

First: CC(C)(C)c1cc(C(=O)NCc2cc(F)c(-c3ncnn4cccc34)cc2Cl)no1 [Example 135]
Second: CC(C)(C)c1nc(C(=O)NCc2ccc(-c3ncnn4cccc34)c(F)c2C2CC2)no1 [Example 62, 5-(tert-butyl)-N-(2-cyclopropyl-3-fluoro-4-(pyrrolo[2,1-f][1,2,4]triazin-4-yl)benzyl)-1,2,4-oxadiazole-3-carboxamide trifluoroacetate]
The IC50 of the first is higher: greater than 10 nM for the first, 1 to 10 nM for the second. The second is the more potent here.

`COc1c(CNC(=O)c2nnc(C(C)(C)C)o2)ccc(-c2ncnn3cc(-c4cnn(C)c4)cc23)c1F` [Example 201] and `Cn1cc(-c2cc3c(-c4ccc(CNC(=O)c5nc(C(C)(C)C)no5)c(CC(F)F)c4F)ncnn3c2)cn1` [Example 66, 3-(tert-butyl)-N-(2-(2,2-difluoroethyl)-3-fluoro-4-(6-(1-methyl-1H-pyrazol-4-yl)pyrrolo[2,1-f][1,2,4]triazin-4-yl)benzyl)-1,2,4-oxadiazole-5-carboxamide hydrochloride] cannot be ordered by IC50: 1 to 10 nM for the first, no more than 1 nM for the second.
